Experimental data taken from US20050124607A1, “5-Substituted quinazolinone compounds useful as alpha 1A/B adrenergic receptor antagonists” (priority 2003, published 2005).
Counter-ions that a name gives are not always drawn.

Compound	melting point [°C]
COc1cc2[nH]c(N3CCN(C(=O)CCC(C)C)CC3)nc(=O)c2c(OC)c1OC.Cl	198 to 201
COc1cc2[nH]c(N3Cc4ccc(Cl)cc4C3)nc(=O)c2c(OC)c1OC.Cl	289 to 291
COc1cc2[nH]c(N3CCc4c(cccc4N=C4N(C)CCN4C)C3)nc(=O)c2c(OC)c1OC	215 to 217.5
COc1cc2[nH]c(N3CCN(C4=NCCN4C)CC3)nc(=O)c2c(OC)c1OC (as salt: HCl)	181.6 to 188.8
COc1cc2c(cc1OC)CN(c1nc(=O)c3c(OC)c(OC)c(OC)cc3[nH]1)CC2 (as salt: HCl) [Example 104, 2-(6,7-Dimethoxy-3,4-di-hydro-1H-isoquinolin-2-yl)-5,6,7-tri-methoxy-1H-quinazolin-4-one]	267 to 270
COc1cc2c(cc1OC)CN(c1nc(=O)c3c(OC(C)C)c(OC)c(OC)cc3[nH]1)CC2 (as salt: HCl) [Example 107, 2-(6,7-Dimethoxy-3,4-di-hydro-1H-isoquinolin-2-yl)-5-iso-propoxy-6,7-di-methoxy-1H-quina-zolin-4-one]	253.3 to 261.9
CCOc1c(OC)c(OC)cc2[nH]c(N3CCc4cc(OC)c(OC)cc4C3)nc(=O)c12 (as salt: HCl) [Example 109, 2-(6,7-Dimethoxy-3,4-di-hydro-1H-isoquinolin-2-yl)-5-eth-oxy-6,7-di-methoxy-1H-quinazolin-4-one]	218.5 to 221
COc1cc2c(cc1OC)CN(c1nc(=O)c3c(O)c(OC)c(OC)cc3[nH]1)CC2 (as salt: HCl) [Example 110, 2-(6,7-Dimethoxy-3,4-di-hydro-1H-isoquinolin-2-yl)-5-hy-droxy-6,7-di-methoxy-1H-quinazolin-4-one]	255 to 259
COc1cc2c(cc1OC)CN(c1nc(=O)c3c(C(C)C)c(OC)c(OC)cc3[nH]1)CC2 (as salt: HCl) [Example 119, 2-(6,7-Dimethoxy-3,4-di-hydro-1H-isoquinolin-2-yl)-5-iso-propyl-6,7-di-methoxy-1H-quina-zolin-4-one]	243 to 244
COc1cc2c(cc1OC)CN(c1nc(=O)c3c(C)c(OC)c(OC)cc3[nH]1)CC2 (as salt: HCl) [Example 121, 2-(6,7-Dimethoxy-3,4-di-hydro-1H-isoquinolin-2-yl)-6,7-di-methoxy-5-meth-yl-1H-quinazolin-4-one]	260 to 268
COc1cc2[nH]c(N3CCc4c(ncnc4N4CCOCC4)C3)nc(=O)c2c(OC)c1OC (as salt: HCl) [Example 135, 5,6,7-Trimethoxy-2-(4-morpho-lin-4-yl-5,8-di-hydro-6H-pyrido[3,4-d]py-rimidin-7-yl)-1H-quina-zolin-4-one]	190 to 192
COc1cc2nc(N3CCN(C(=O)CCC(C)C)CC3)[nH]c(=O)c2c(OC)c1OC (as salt: salt) [Example A-1, 5,6,7-Trimethoxy-2-[4-(4-methyl-pentanoyl)-piperazin-1-yl]-1H-quinazolin-4-one]	198 to 201
CCN(C)Cc1ccc2c(c1)CN(c1nc(=O)c3c(OC)c(OC)c(OC)cc3[nH]1)CC2 [Example 1, 2-{7-[(Ethyl-methyl-ami-no)-methyl]-3,4-di-hydro-1H-isoquinolin-2-yl}-5,6,7-tri-methoxy-1H-quina-zolin-4-one]	161.4 to 163.9
CCN(C)Cc1cccc2c1CCN(c1nc(=O)c3c(OC)c(OC)c(OC)cc3[nH]1)C2 [Example 3, 2-{5-[(Ethyl-methyl-ami-no)-methyl]-3,4-di-hydro-1H-isoquinolin-2-yl}-5,6,7-tri-methoxy-1H-quinazolin-4-one]	214 to 216.9
CNCc1ccc2c(c1)CN(c1nc(=O)c3c(OC)c(OC)c(OC)cc3[nH]1)CC2 [Example 4, 5,6,7-Trimethoxy-2-(7-meth-ylaminomethyl-3,4-di-hydro-1H-isoquino-lin-2-yl)-1H-quina-zolin-4-one]	178.1 to 180.9
COc1cc2c(cc1OC)CN(c1cc(=O)c3cc(Cl)c(Cl)cc3[nH]1)CC2 [Example 7, 6,7-Dichloro-2-(6,7-di-methoxy-3,4-dihydro-1H-iso-quinolin-2-yl)-1H-quino-lin-4-one]	266 to 271
CNCC(=O)N(C)Cc1cccc2c1CCN(c1nc(=O)c3c(C)c(OC)c(OC)cc3[nH]1)C2 [Example 8, N-[2-(6,7-Dimethoxy-5-meth-yl-4-oxo-1,4-di-hydro-quina-zolin-2-yl)-1,2,3,4-tetrahydro-iso-quinolin-5-ylmethyl]-N-meth-yl-2-methyl-amino-acetamide]	208.8 to 212
COc1cc2[nH]c(N3CCc4c(cccc4/N=C4\CCCN4C)C3)nc(=O)c2c(C(C)C)c1OC [Example 9, 5-Isopropyl-6,7-di-methoxy-2-{5-[1-meth-yl-pyrolidin-(2E)-ylidene-amino]-3,4-di-hydro-1H-iso-quinolin-2-yl}-1H-quina-zolin-4-one]	196 to 200

Second part, the compound after the results:

melting point [°C]	Compound
246 to 250	COc1cc2[nH]c(N3CCc4c(cccc4C4=NCCN4C)C3)nc(=O)c2c(C)c1OC
257.9 to 260	COc1cc2[nH]c(N3CCN(C4=NCCN4c4cccc(F)c4)CC3)nc(=O)c2c(C)c1OC
263 to 264	COc1cc2[nH]c(N3CCN(c4nccn4C)CC3)nc(=O)c2c(C)c1OC
130.9 to 133.3	COc1cc2[nH]c(N3CCC(CCn4ccnc4N)CC3)nc(=O)c2c(C)c1OC
266.1 to 269.5	COc1cc2[nH]c(N3CCC(CCN4CCN=C4C)CC3)nc(=O)c2c(C)c1OC
252.4 to 253.2	COc1cc2[nH]c(N3CCC(CCn4ccnc4N)CC3)nc(=O)c2c(OC)c1OC
286.6 to 293.1	COc1cc2[nH]c(N3CCN(c4ccccn4)CC3)nc(=O)c2c(C)c1OC (as salt: HCl) [Example 40, 6,7-Dimethoxy-5-meth-yl-2-(4-pyridin-2-yl-pipe-razin-1-yl)-1H-quina-zolin-4-one]
277.7 to 280	COc1cc2[nH]c(N3CCN(c4cc(C)ccn4)CC3)nc(=O)c2c(C)c1OC (as salt: HCl) [Example 43, 6,7-Dimethoxy-5-meth-yl-2-[4-(4-methyl-py-ridin-2-yl)-piperazin-1-yl]-1H-quina-zolin-4-one]
236.6 to 237.7	COc1cc2[nH]c(N3CCCN(C(=O)N4CCOCC4)CC3)nc(=O)c2c(C)c1OC (as salt: HCl) [Example 137, 6,7-Dimethoxy-5-meth-yl-2-[4-(morpho-line-4-carbo-nyl)-[1,4]diazepan-1-yl]-1H-quina-zolin-4-one]
189.4 to 204.6	CCN(C)Cc1ccc2c(c1)CN(c1nc(=O)c3c(C)c(OC)c(OC)cc3[nH]1)CC2 [Example 2, 2-{7-[(Ethyl-methyl-ami-no)-methyl]-3,4-di-hydro-1H-isoquinolin-2-yl}-6,7-di-methoxy-5-meth-yl-1H-quinazolin-4-one]
241.9 to 245.5	CNCc1cccc2c1CCN(c1nc(=O)c3c(C)c(OC)c(OC)cc3[nH]1)C2 [Example 6, 6,7-Dimethoxy-5-meth-yl-2-(5-methyl-aminomethyl-3,4-di-hydro-1H-isoquinolin-2-yl)-1H-quin-azolin-4-one]
231.1 to 232.2	COc1cc2[nH]c(N3CCN(c4cccc(C)n4)CC3)nc(=O)c2c(OC)c1OC [Example 24, 5,6,7-Trimethoxy-2-[4-(6-meth-yl-pyridin-2-yl)-pipe-razin-1-yl]-1H-quina-zolin-4-one]
